Tests used:
[1] = molecular target: ERβ LBD (amino acids 257–502) (Homo sapiens, UniProt Q92731); assay: Differential HDX mass spectrometry of ERβLBD with and without ligand; format: binding; settings: for Average difference in deuterium levels, LOOP 271-294 / Average difference in deuterium levels, LOOP 271-295 / Average difference in deuterium levels, LOOP 273-294 / Average difference in deuterium levels, LOOP 273-295 / Average difference in deuterium levels, LOOP 282-294 / Average difference in deuterium levels, LOOP 282-295 / Average difference in deuterium levels, LOOP 274-295: ERβLBD:ligand 1:10, average of 1, 30, 60, 900, 4200 sec, negative = protection
ERβ [2] = molecular target: T1, ERβ (Homo sapiens, UniProt Q92731); assay: Cell based functional assay, ERE-luciferase in HEK 293 cells, agonist mode; settings: for ERβ Agonist % stim: % stimulation versus DES maximum response; for EC50: read-out: ERβ Agonist EC50, ERE-luciferase, 24 h
ERβ [3] = molecular target: T1, ERβ; assay: Cell based functional assay, ERE-luciferase in HEK 293 cells, antagonist mode; settings: for ERβ Antag % inhib.: HEK 293 cells, ERE-luciferase
ER β = settings: ERβ versus ERα; cited from earlier work
ERβ [4] = molecular target: T1, ERβ; assay: ER competition binding assay
ERα = molecular target: T2, ERα (Homo sapiens, UniProt P03372); assay: ER competition binding assay
T2 sequence (P03372 1-595): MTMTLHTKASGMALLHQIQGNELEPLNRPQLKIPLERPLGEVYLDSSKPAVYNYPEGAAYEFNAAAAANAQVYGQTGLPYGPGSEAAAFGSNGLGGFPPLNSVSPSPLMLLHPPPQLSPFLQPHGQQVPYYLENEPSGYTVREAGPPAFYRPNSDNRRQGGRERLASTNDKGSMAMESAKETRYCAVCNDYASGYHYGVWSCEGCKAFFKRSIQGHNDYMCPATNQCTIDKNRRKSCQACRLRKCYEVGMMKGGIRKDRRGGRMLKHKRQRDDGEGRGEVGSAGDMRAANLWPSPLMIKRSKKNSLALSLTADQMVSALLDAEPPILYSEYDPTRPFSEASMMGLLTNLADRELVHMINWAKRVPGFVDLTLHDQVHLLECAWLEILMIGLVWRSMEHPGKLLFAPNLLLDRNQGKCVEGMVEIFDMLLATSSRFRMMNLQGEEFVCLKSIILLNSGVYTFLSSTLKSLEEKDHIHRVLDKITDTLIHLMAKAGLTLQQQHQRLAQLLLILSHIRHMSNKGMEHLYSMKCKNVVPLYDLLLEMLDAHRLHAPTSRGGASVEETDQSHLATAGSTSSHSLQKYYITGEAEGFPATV

T1 sequence (Q92731 whole entry): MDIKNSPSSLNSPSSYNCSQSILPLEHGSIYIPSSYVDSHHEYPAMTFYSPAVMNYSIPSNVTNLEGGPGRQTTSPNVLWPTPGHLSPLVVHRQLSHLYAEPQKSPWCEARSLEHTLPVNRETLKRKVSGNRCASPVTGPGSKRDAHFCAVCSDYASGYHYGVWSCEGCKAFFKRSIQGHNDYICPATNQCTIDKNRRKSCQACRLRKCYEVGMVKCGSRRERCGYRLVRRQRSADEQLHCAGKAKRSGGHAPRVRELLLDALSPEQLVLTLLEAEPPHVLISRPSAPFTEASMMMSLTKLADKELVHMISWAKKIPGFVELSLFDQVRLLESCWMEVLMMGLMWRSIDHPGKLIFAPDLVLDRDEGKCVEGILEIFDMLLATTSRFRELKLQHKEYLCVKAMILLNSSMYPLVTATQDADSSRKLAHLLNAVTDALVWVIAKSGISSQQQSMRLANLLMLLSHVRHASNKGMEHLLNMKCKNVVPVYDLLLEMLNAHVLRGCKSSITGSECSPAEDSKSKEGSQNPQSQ
Sequence of ERβ LBD (amino acids 257–502) (Q92731 257-502): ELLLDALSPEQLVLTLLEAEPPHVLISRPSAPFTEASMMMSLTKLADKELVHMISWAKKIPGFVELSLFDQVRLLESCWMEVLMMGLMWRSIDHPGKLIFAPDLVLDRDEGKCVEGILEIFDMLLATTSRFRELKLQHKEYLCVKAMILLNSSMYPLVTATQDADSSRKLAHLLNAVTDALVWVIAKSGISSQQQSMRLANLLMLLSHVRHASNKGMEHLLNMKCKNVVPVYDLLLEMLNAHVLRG

Row | Compound | Average difference in deuterium levels, LOOP 271-294 [1] [%] | Average difference in deuterium levels, LOOP 271-295 [1] [%] | Average difference in deuterium levels, LOOP 273-294 [1] [%] | Average difference in deuterium levels, LOOP 273-295 [1] [%] | Average difference in deuterium levels, LOOP 282-294 [1] [%] | Average difference in deuterium levels, LOOP 282-295 [1] [%] | Average difference in deuterium levels, LOOP 274-295 [1] [%] | ERβ Agonist % stim (ERβ [2]) [%] | EC50 (ERβ [2]) [nM] | ERβ Antag % inhib. (ERβ [3]) [%] | Binding to ER β tighter than to ERα (ER β) | IC50 (ERβ [3]) [nM] | Ki (ERβ [4]) [nM] | Ki (ERα) [nM] | Protection to exchange, β-sheet1/β-sheet2 region ([1]; amino acid 355–362 of ERβLBD, p<0.001, positive = protection) | Protection (stabilization) of helix 3 to H/D exchange, ERβ ([1]; helix 3, amino acids 296–309 in ERβ, positive = protection) [%]
1 | O=C(c1ccc(OCCN2CCCCC2)cc1)c1c(-c2ccc(O)cc2)sc2cc(O)ccc12 [Raloxifene, raloxifene] | −7 | −7 | −9 | −7 | −6 | −7 |  |  |  |  |  |  |  |  |  | 
2 | C[C@]12CC[C@@H]3c4ccc(O)cc4CC[C@H]3[C@@H]1CC[C@@H]2O [Estradiol, 17β-estradiol] | −6 | −7 | −9 | −6 | −7 | −6 | −8 | 100 |  |  |  |  |  |  |  | 
3 | O=C(c1ccc(O)cc1)c1c(-c2ccc(O)cc2)sc2cc(O)ccc12 [compound 88074] | −7 | −8 | −9 | −7 | −7 | −7 | −8 | 104 | 232 |  |  |  |  |  |  | 
4 | C[C@]12CC[C@@H]3c4ccc(O)cc4C[C@@H](CCCCCCCCC[S+]([O-])CCCC(F)(F)C(F)(F)F)[C@H]3[C@@H]1CC[C@@H]2O (stereo partly drawn) [ICI, ICI 182780] | −9 | −10 | −11 | −10 | −9 | −10 | −11 |  |  | 109 |  |  |  |  |  | 
5 | Oc1ccc2c(c1)CC[C@H](c1ccccc1)[C@@H]2c1ccc(OCCN2CCCC2)cc1 [Lasodoxifene, lasofoxifene] | −11 | −11 | −12 | −9 | −9 | −9 | −12 |  |  | 103 |  |  |  |  |  | 
6 | CC/C(=C(/CC)c1ccc(O)cc1)c1ccc(O)cc1 [DES, Diethylstilbestrol] | −10 | −10 | −12 | −10 | −8 | −10 | −10 | 97 |  |  |  |  |  |  |  | 
7 | O=c1c(-c2ccc(O)cc2)coc2cc(O)cc(O)c12 [Genistein, genistein] |  |  |  |  |  |  |  |  |  |  | approximately 10 fold |  |  |  |  | 
8 | O=C(c1ccc(OCCN2CCCC2)cc1)c1c(-c2ccc(O)cc2)sc2cc(O)ccc12 [compound 117018] | −7 | −7 | −8 | −7 | −7 | −8 | −8 |  | > 10000 | 108 |  | 204 | 1.3 | 0.32 |  | 
9 | CC/C(=C(\c1ccc(O)cc1)c1ccc(OCCN(C)C)cc1)c1ccccc1 [4-hydroxy tamoxifen, 4-hydroxytamoxifen] | −8 | −11 | −12 | −11 | −10 | −11 | −12 |  |  |  |  |  |  |  | ~ 20% | 13

Reference: paper PMC2782520 (Biochemistry, 2009)
